According to patent publication US20120157717A1, “METHODS AND COMPOSITIONS FOR PRODUCING LINEAR ALKYL BENZENES” (LS9, INC., priority 2010, published 2012):
Where two headings read alike, the source gives them in different places.

B1: Synechococcus elongatus PCC7942 YP-400611 (Synpcc7942-1594) acyl-ACP reductase, purified with C-terminal His-tag (protein)
chain: MFGLIGHLTSLEQARDVSRRMGYDEYADQGLEFWSSAPPQIVDEITVTSATGKVIHGRYIESCFLPEMLAARRFKTATRKVLNAMSHAQKHGIDISALGGFTSIIFENFDLASLRQVRDTTLEFERFTTGNTHTAYVICRQVEAAAKTLGIDITQATVAVVGATGDIGSAVCRWLDLKLGVGDLILTARNQERLDNLQAELGRGKILPLEAALPEADFIVWVASMPQGVVIDPATLKQPCVLIDGGYPKNLGSKVQGEGIYVLNGGVVEHCFDIDWQIMSAAEMARPERQMFACFAEAMLLEFEGWHTNFSWGRNQITIEKMEAIGEASVRHGFQPLALAI

Experiments:
PCC7942_orf1594 protein = target: T1, PCC7942_orf1594 protein (Synechococcus elongatus, UniProt Q54765); assay: acyl-ACP or acyl-CoA reductase enzyme assay (aldehyde formed, GC/MS); format: biochemical, Synechococcus elongatus PCC7942
T1 construct: His-tag (C); made in house; host or cells: E. coli BL21 (DE3)
T1 sequence (Q54765 1-341): B1 chain
Description: The genomic DNA encoding S. elongatus […] orf1594 (SEQ ID NO:65) was cloned into the NcoI and XhoI sites of vector pET-28b under the control of the T7 promoter. The resulting PCC7942_orf1594 protein contained a C-terminal His-tag. An E. coli BL21 strain (DE3) (Invitrogen) was transformed with the plasmid and PCC7942_orf1594 protein was expressed and purified as described in Example 22. The protein solution was stored in the following buffer: 50 mM sodium phosphate, pH 7.5, 100 mM NaCl, 1 mM THP, 10% glycerol. Protein concentration was determined using the Bradford assay (Biorad). 2 mg/mL of PCC7942_orf1594 protein was obtained.
To test PCC7942_orf1594 protein for acyl-ACP or acyl-CoA reductase activity, the following enzyme assays were set-up. 100 μL reactions were set-up in 50 mM Tris-HCl buffer at pH 7.5 with the following components at their respective final concentrations: 10 μM of purified PCC7942_orf1594 protein, 0.01-1 mM acyl-CoA or acyl-ACP, 2 mM MgCl2, 0.2-2 mM NADPH. The reactions were incubated for 1 h at 37° C. and where stopped by adding 100 μL ethyl acetate (containing 5 mg/l 1-octadecene as internal standard). Samples were vortexed for 15 min and centrifuged at max speed for 3 min for phase separation. 80 μL of the top layer were transferred into GC glass vials and analyzed by GC/MS as described in Example 26. The amount of aldehyde formed was calculated based on the internal standard.

[1] = system: Prochlorococcus marinus CCMP1986 PMM0532 (NP-892650; putative decarbonylase)
[2] = in the presence of 2 mM NADPH, 10 μM purified enzyme, 2 mM MgCl2, pH 7.5, 1 h at 37° C., read-out: Km for the reduction of the acyl substrate

| Molecule | Km (PCC7942_orf1594 protein; [2]) [µM] | further results |
| --- | --- | --- |
| octadecenoyl-CoA | 82 ± 22 |  |
| NC(=O)C1=CN([C@@H]2O[C@H](COP(=O)(O)OP(=O)(O)OC[C@H]3O[C@@H](n4cnc5c(N)ncnc54)[C@H](OP(=O)(O)O)[C@@H]3O)[C@@H](O)[C@H]2O)C=CC1 [NADPH, reference compound] |  | Km (PCC7942_orf1594 protein; in the presence of 0.5 mM octadecanoyl-CoA, read-out: Km value for NADPH): 400 ± 80 µM |
| CCCCCCCCCCCCCCCCCC(=O)SCCNC(=O)CCNC(=O)[C@H](O)C(C)(C)COP(=O)(O)OP(=O)(O)OC[C@H]1O[C@@H](n2cnc3c(N)ncnc32)[C@H](O)[C@@H]1OP(=O)(O)O [octadecanoyl-CoA] | 45 ± 20 |  |
| octadecenoyl-ACP | 7.8 ± 2 |  |
| Prochlorococcus marinus CCMP1986 PMM0533 (NP-892651; putative aldehyde-generating enzyme) |  | hydrocarbon and fatty alcohol production by cotransformed E. coli MG1655 (GC/MS) [1]: E. coli cells transformed with only the P. marinus CCMP1986 PMM0533-bearing vector did not produce any fatty aldehydes or fatty alcohols. However, E. coli cells cotransformed with PMM0533 and PMM0532-bearing vectors produced hexadecanol, pentadecane and heptadecene |
| B1 |  | Km for the reduction of octadecenoyl-ACP in the presence of 2 mM NADPH (in vitro reductase assay, GC/MS) (octadecenoyl-ACP): 7.8 ± 2 µM |
